Data from PMC8950173 (Pharmaceuticals, 2022).

Columns and labels:
human recombinant HDAC2 = biological target: T1, human recombinant HDAC2 (Homo sapiens, UniProt Q92769); experiment: Inhibition assay HDAC2 (fluorogenic substrate ZMAL); format: biochemical; conditions: 60 min preincubation at 25 °C
T1 construct: purchased BPS Bioscience Inc. 50052
Method: In vitro inhibitory activities against HDAC1−3 and HDAC6 were measured as previously published with minor modifications. […] Subsequently, 50 µL trypsin solution (0.4 mg/mL trypsin in buffer: 50 mM Tris−HCl, pH = 8.0, 100 mM NaCl) was added, followed by additional 30 min of incubation at 37 °C. […] All compounds were tested at least twice in duplicates.

[1] = In vivo metabolism (radio-RP-HPLC and radio-MLC of plasma, brain, urine); set-up: species or system CD-1 mice; conditions: 30 min p.i.
Method: The radiotracer [^18F]BA3 (~30 MBq in 200 µL isotonic saline) was administered via the tail vein in non-anesthetized female CD-1 mice (n = 2). At 30 min p.i., the animals were anesthetized by isoflurane inhalation and blood was sampled from the retro-orbital plexus. After cervical dislocation, urine was obtained and the brain was isolated. Plasma was obtained by centrifugation of the blood sample (8000× g, 2 min), and the brain was homogenized in ~1 mL distilled water on ice using a glass/PTFE Potter Homogenizer (Potter S Homogenizer, B. Braun Melsungen AG, Melsungen, Germany).
Protein precipitation was performed by addition of an ice-cold MeCN/H2O mixture (9:1, v/v) in a ratio of 4:1 (v/v) of organic solvent to plasma or brain homogenate, respectively. The samples were vortexed for 3 min, equilibrated on ice for 3 min, and centrifuged for 10 min at 10,000 rpm. The precipitates were washed with 100 μL of the solvent mixture and subjected to the same procedure. The combined supernatants were concentrated at 70 °C under argon flow to a final volume of approximately 100 μL and analysed by analytical radio-RP-HPLC with a gradient system (see quality control section). The peak corresponding to the radiotracer in the radio-chromatogram was identified by co-injecting the sample with the reference compound BA3. To determine the percentage of activity in the supernatants compared with total activity, aliquots of each step as well as the precipitates were quantified by an automated gamma counter (1480 WIZARD, Perkin Elmer, Turku, Finland). For plasma and brain samples recoveries of 97% and 95%, respectively, of total activity were obtained.
For the preparation of the MLC samples, 20 µL of mouse plasma was dissolved in 200 µL of an aqueous 200 mM sodium dodecyl sulfate (SDSaq) solution and injected into the MLC system. For brain samples, 400 µL brain homogenate was dissolved in 800 µL 200 mM SDSaq, heated for 5 min at 70 °C and centrifuged for 5 min at 10,000 rpm. The MLC system was built up as earlier described. Separations were performed by using a Reprosil-Pur C18-AQ column (250 × 4.6 mm, 10 µm + 10 mm pre-column) and an eluent mixture of EtOH/100 mM SDSaq/25 mM (NH4)2HPO4 in gradient mode (0–10 min at 100% 100 mM SDSaq, 10–15 min up to 10% EtOH, 15–20 min at 10% EtOH, 20–21 min up to 100% 100 mM SDSaq; 21–30 min at 100% 100 mM SDSaq) at a flow rate of 1.0 mL/min.

[2] = radio-RP-HPLC, individual values of 2 mice

T1 sequence (Q92769 whole entry): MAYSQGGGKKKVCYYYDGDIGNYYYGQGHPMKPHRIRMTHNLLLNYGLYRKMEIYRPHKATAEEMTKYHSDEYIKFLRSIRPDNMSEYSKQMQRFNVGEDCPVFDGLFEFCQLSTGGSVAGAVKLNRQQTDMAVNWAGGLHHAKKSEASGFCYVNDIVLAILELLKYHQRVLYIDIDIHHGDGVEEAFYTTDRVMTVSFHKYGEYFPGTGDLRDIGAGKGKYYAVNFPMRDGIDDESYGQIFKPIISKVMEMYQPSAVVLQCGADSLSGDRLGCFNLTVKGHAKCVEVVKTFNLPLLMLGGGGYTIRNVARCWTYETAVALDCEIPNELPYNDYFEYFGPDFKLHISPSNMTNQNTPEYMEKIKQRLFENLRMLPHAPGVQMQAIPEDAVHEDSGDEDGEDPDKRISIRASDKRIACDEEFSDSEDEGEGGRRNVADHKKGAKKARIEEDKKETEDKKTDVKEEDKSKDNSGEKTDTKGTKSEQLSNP

SMILES: CC([18F])C(=O)NCc1ccc(C(=O)Nc2cc(-c3ccsc3)ccc2N)cc1 (centres unmarked) [[^18F]BA3]
- IC50 (human recombinant HDAC2): 39.9 ± 3.2 nM
- intact radiotracer, share of total activity in brain ([1]; radio-MLC, mean, n = 2): ~24%
- intact radiotracer, share of total activity in plasma ([1]; radio-MLC, mean, n = 2): about 6%
- intact radiotracer in urine ([1]; radio-RP-HPLC and radio-MLC): not detected
- Brain [%] of activity [1, 2]: 20 / 23
- Plasma [%] of activity [1, 2]: 3 / 7
- share of total activity in brain ([1]; radio-RP-HPLC, mean, n = 2): 21%
- share of total activity in plasma ([1]; radio-RP-HPLC, mean, n = 2): about 5%
